System: Genes belonging to other category
Assay: DNA chip mRNA expression in yeast, genes belonging to other category (Table 9)
Format: cell-based, Saccharomyces cerevisiae S288C
Method in brief: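 Measured as treated-to-untreated fluorescence ratio on a full-genome yeast DNA chip. Cells (S288C, YPD, 25° C.) were exposed in log phase for two hours to one chemical, dosed to curb growth without killing.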

Substance: Na2As [(1)]
- The level of expressed mRNA in the presence of chemical substance/The level of expressed mRNA in the absence of chemical substance (yeast gene YAR010C): 0.8
- The level of expressed mRNA in the presence of chemical substance/The level of expressed mRNA in the absence of chemical substance (yeast gene YBL005W-A): 1.0
- The level of expressed mRNA in the presence of chemical substance/The level of expressed mRNA in the absence of chemical substance (yeast gene YBL041W): 1.2
- The level of expressed mRNA in the presence of chemical substance/The level of expressed mRNA in the absence of chemical substance (yeast gene YBL043W): 1.2
- The level of expressed mRNA in the presence of chemical substance/The level of expressed mRNA in the absence of chemical substance (yeast gene YBL078C): 2.3
- The level of expressed mRNA in the presence of chemical substance/The level of expressed mRNA in the absence of chemical substance (yeast gene YBR214W): 0.9
- The level of expressed mRNA in the presence of chemical substance/The level of expressed mRNA in the absence of chemical substance (yeast gene YCL020W): 1.1
- The level of expressed mRNA in the presence of chemical substance/The level of expressed mRNA in the absence of chemical substance (yeast gene YCL027W): 0.7
- The level of expressed mRNA in the presence of chemical substance/The level of expressed mRNA in the absence of chemical substance (yeast gene YCR004C): 1.7
- The level of expressed mRNA in the presence of chemical substance/The level of expressed mRNA in the absence of chemical substance (yeast gene YCR071C): 1.1
- The level of expressed mRNA in the presence of chemical substance/The level of expressed mRNA in the absence of chemical substance (yeast gene YCR088W): 0.9
- The level of expressed mRNA in the presence of chemical substance/The level of expressed mRNA in the absence of chemical substance (yeast gene YDL008W): 1.1
- The level of expressed mRNA in the presence of chemical substance/The level of expressed mRNA in the absence of chemical substance (yeast gene YDL238C): 0.7
- The level of expressed mRNA in the presence of chemical substance/The level of expressed mRNA in the absence of chemical substance (yeast gene YDR055W): 1.7
- The level of expressed mRNA in the presence of chemical substance/The level of expressed mRNA in the absence of chemical substance (yeast gene YDR084C): 0.9
- The level of expressed mRNA in the presence of chemical substance/The level of expressed mRNA in the absence of chemical substance (yeast gene YDR085C): 1.9
- The level of expressed mRNA in the presence of chemical substance/The level of expressed mRNA in the absence of chemical substance (yeast gene YDR104C): 0.8
- The level of expressed mRNA in the presence of chemical substance/The level of expressed mRNA in the absence of chemical substance (yeast gene YDR115W): 1.3
- The level of expressed mRNA in the presence of chemical substance/The level of expressed mRNA in the absence of chemical substance (yeast gene YDR259C): 1.4
- The level of expressed mRNA in the presence of chemical substance/The level of expressed mRNA in the absence of chemical substance (yeast gene YDR315C): 1.0
- The level of expressed mRNA in the presence of chemical substance/The level of expressed mRNA in the absence of chemical substance (yeast gene YDR358W): 0.7
- The level of expressed mRNA in the presence of chemical substance/The level of expressed mRNA in the absence of chemical substance (yeast gene YDR388W): 0.7
- The level of expressed mRNA in the presence of chemical substance/The level of expressed mRNA in the absence of chemical substance (yeast gene YDR432W): 0.5
- The level of expressed mRNA in the presence of chemical substance/The level of expressed mRNA in the absence of chemical substance (yeast gene YDR481C): 0.7
- The level of expressed mRNA in the presence of chemical substance/The level of expressed mRNA in the absence of chemical substance (yeast gene YDR510W): 1.0
- The level of expressed mRNA in the presence of chemical substance/The level of expressed mRNA in the absence of chemical substance (yeast gene YEL042W): 0.6
- The level of expressed mRNA in the presence of chemical substance/The level of expressed mRNA in the absence of chemical substance (yeast gene YEL066W): 2.0
- The level of expressed mRNA in the presence of chemical substance/The level of expressed mRNA in the absence of chemical substance (yeast gene YER039C): 1.0
- The level of expressed mRNA in the presence of chemical substance/The level of expressed mRNA in the absence of chemical substance (yeast gene YER107C): 0.9
- The level of expressed mRNA in the presence of chemical substance/The level of expressed mRNA in the absence of chemical substance (yeast gene YER130C): 0.9
- The level of expressed mRNA in the presence of chemical substance/The level of expressed mRNA in the absence of chemical substance (yeast gene YFL022C): 0.8
- The level of expressed mRNA in the presence of chemical substance/The level of expressed mRNA in the absence of chemical substance (yeast gene YFL028C): 1.2
- The level of expressed mRNA in the presence of chemical substance/The level of expressed mRNA in the absence of chemical substance (yeast gene YFL043C): 1.0
- The level of expressed mRNA in the presence of chemical substance/The level of expressed mRNA in the absence of chemical substance (yeast gene YGL158W): 1.1
- The level of expressed mRNA in the presence of chemical substance/The level of expressed mRNA in the absence of chemical substance (yeast gene YGL229C): 0.6
- The level of expressed mRNA in the presence of chemical substance/The level of expressed mRNA in the absence of chemical substance (yeast gene YGR136W): 0.9
- The level of expressed mRNA in the presence of chemical substance/The level of expressed mRNA in the absence of chemical substance (yeast gene YGR189C): 1.1
- The level of expressed mRNA in the presence of chemical substance/The level of expressed mRNA in the absence of chemical substance (yeast gene YGR213C): 5.4
- The level of expressed mRNA in the presence of chemical substance/The level of expressed mRNA in the absence of chemical substance (yeast gene YGR257C): 0.7
- The level of expressed mRNA in the presence of chemical substance/The level of expressed mRNA in the absence of chemical substance (yeast gene YHR004C): 0.9
- The level of expressed mRNA in the presence of chemical substance/The level of expressed mRNA in the absence of chemical substance (yeast gene YHR071W): 1.5
- The level of expressed mRNA in the presence of chemical substance/The level of expressed mRNA in the absence of chemical substance (yeast gene YHR139C): 3.0
- The level of expressed mRNA in the presence of chemical substance/The level of expressed mRNA in the absence of chemical substance (yeast gene YHR142W): 1.5
- The level of expressed mRNA in the presence of chemical substance/The level of expressed mRNA in the absence of chemical substance (yeast gene YIL123W): 1.0
- The level of expressed mRNA in the presence of chemical substance/The level of expressed mRNA in the absence of chemical substance (yeast gene YIL140W): 0.7
- The level of expressed mRNA in the presence of chemical substance/The level of expressed mRNA in the absence of chemical substance (yeast gene YJL073W): 0.8
- The level of expressed mRNA in the presence of chemical substance/The level of expressed mRNA in the absence of chemical substance (yeast gene YJL089W): 1.1
- The level of expressed mRNA in the presence of chemical substance/The level of expressed mRNA in the absence of chemical substance (yeast gene YJL116C): 0.9
- The level of expressed mRNA in the presence of chemical substance/The level of expressed mRNA in the absence of chemical substance (yeast gene YJR004C): 0.2
- The level of expressed mRNA in the presence of chemical substance/The level of expressed mRNA in the absence of chemical substance (yeast gene YJR086W): 1.2

Source: patent US8192962B2, “Processes for detecting toxic substances” (Daikin Industries, Ltd., priority 2001, dated 2012)
